This is an account of results in PubChem BioAssay AID330 (DTP/NCI, 2004).

The experiment concerns P388 leukemia ip, CD2F1 mice, survival T/C. Kind of experiment: NCI In Vivo Anticancer Drug Screen. Data for tumor model P388 Leukemia (intraperitoneal) in CD2F1 (CDF1) mice. The note with it: endpoint: median survival time, higher = longer survival. The procedure, abridged:
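Mice carrying the transplanted tumor received test compound or vehicle. Survival was recorded in each group, and the value is the treated-group measurement divided by that of the vehicle-treated control group.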

Setting [1] is: dose: 6.25 mg/kg/injection, schedule: Q01DX009 (ip), vehicle: saline with Tween-80.
Where [2] appears, read: dose: 12.5 mg/kg/injection, schedule: Q01DX009 (ip), vehicle: saline with Tween-80.
Where [3] appears, read: dose: 25.0 mg/kg/injection, schedule: Q01DX009 (ip), vehicle: saline with Tween-80.
Setting [4] is: dose: 100.0 mg/kg/injection, schedule: Q01DX009 (ip), vehicle: saline with Tween-80.
[5] abbreviates: dose: 60.0 mg/kg/injection, schedule: Q01DX005 (ip), vehicle: saline with Tween-80.
Setting [6] is: dose: 120.0 mg/kg/injection, schedule: Q01DX005 (ip), vehicle: saline with Tween-80.
Setting [7] is: dose: 50.0 mg/kg/injection, schedule: Q01DX009 (ip), vehicle: saline.
[8] abbreviates: dose: 100.0 mg/kg/injection, schedule: Q01DX009 (ip), vehicle: saline.
Setting [9] is: dose: 50.0 mg/kg/injection, schedule: Q01DX009 (ip), vehicle: Klucel (hydroxypropylcellulose) (HPC).
Setting [10] is: dose: 50.0 mg/kg/injection, schedule: Q01DX005 (ip), vehicle: saline.
Where [11] appears, read: dose: 100.0 mg/kg/injection, schedule: Q01DX005 (ip), vehicle: saline.
[12] abbreviates: dose: 200.0 mg/kg/injection, schedule: Q01DX005 (ip), vehicle: saline.
The mark [13] stands for this setting: dose: 200.0 mg/kg/injection, schedule: Q01DX009 (ip), vehicle: saline.
Where [14] appears, read: dose: 50.0 mg/kg/injection, schedule: Q01DX005 (ip), vehicle: saline + Tween-80 + alcohol.
The mark [15] stands for this setting: dose: 100.0 mg/kg/injection, schedule: Q01DX005 (ip), vehicle: saline + Tween-80 + alcohol.
The mark [16] stands for this setting: dose: 50.0 mg/kg/injection, schedule: Q01DX009 (ip), vehicle: saline with Tween-80.
Setting [17] is: dose: 200.0 mg/kg/injection, schedule: Q01DX009 (ip), vehicle: saline with Tween-80.

Values joined by “and” are separate entries in the source; they are usually repeats but may differ in a detail not shown here. Identical values can stand only once. Inconclusive results and toxic doses are left out. Square brackets hold non-standard residues; d marks the D form. Peptide text beside a SMILES is read from it. Nle = CCCC[CH](N)C(=O)O

As to `C/C=C/[Se]c1ccccc1`, the T/C runs as follows: under setting [1], 103 % of control; under setting [2], 106 % of control; under setting [3], 103 % of control; under setting [4], 105 % of control and 107 % of control and 121 % of control.

On to `COc1c2ccccc2c(OC)c2c(OC(C)=O)c3c(c(OC(C)=O)c12)CC=CC3`, for which the T/C was 96 % of control (dose: 3.13 mg/kg/injection, schedule: Q01DX009 (ip), vehicle: other); 104 % of control (dose: 6.25 mg/kg/injection, schedule: Q01DX009 (ip), vehicle: other); 93 % of control (dose: 25.0 mg/kg/injection, schedule: Q01DX009 (ip), vehicle: other); 96 % of control (dose: 50.0 mg/kg/injection, schedule: Q01DX009 (ip), vehicle: other).

As to `CC(C)CC[NH-].CC(C)CC[NH-].[Cl][Pt+2]([Cl])([Cl])[Cl]`, the T/C under setting [4] was 176 % of control.

As to `COc1cc2c(c(NC(C)CCCN=C(N)NC(N)=NC(C)C)c1)NCCC2` (stereo not drawn), the T/C by setting is: (dose: 3.12 mg/kg/injection, schedule: Q01DX005 (ip), vehicle: saline with Tween-80) 103 % of control; (dose: 6.25 mg/kg/injection, schedule: Q01DX005 (ip), vehicle: saline with Tween-80) 106 % of control; (dose: 12.5 mg/kg/injection, schedule: Q01DX005 (ip), vehicle: saline with Tween-80) 106 % of control.

In the case of `COC(=O)C1CCC(/C(C#N)=C2/CCC(C(=O)OC)[N-]2)=N1.COC(=O)C1CCC(/C(C#N)=C2/CCC(C(=O)OC)[N-]2)=N1.[Cu+2]` (stereo not drawn), the T/C reads like this: under setting [5], 103 % of control; under setting [6], 94 % of control.

For the molecule `CC(C)=C(C#N)N(C)C(C)(C)C`, the T/C was 100 % of control under setting [7] and 97 % of control under setting [8].

On to `CCn1c2ccccc2c2cc(N=Nc3cc4cc5ccccc5cc4cc3N)ccc21`, for which the T/C was 101 % of control (dose: 100.0 mg/kg/injection, schedule: Q04DX003 (ip), vehicle: Klucel (hydroxypropylcellulose) (HPC)) and 93 % of control (dose: 200.0 mg/kg/injection, schedule: Q04DX003 (ip), vehicle: Klucel (hydroxypropylcellulose) (HPC)).

Turning to `COc1cc(CC2C(=O)OCC2C2(c3ccc4c(c3)OCO4)SCCCS2)cc(OC)c1OC` (stereo not drawn), the T/C was 105 % of control under setting [9]; 91 % of control (dose: 100.0 mg/kg/injection, schedule: Q01DX009 (ip), vehicle: Klucel (hydroxypropylcellulose) (HPC)); 93 % of control (dose: 200.0 mg/kg/injection, schedule: Q01DX009 (ip), vehicle: Klucel (hydroxypropylcellulose) (HPC)).

On to `NC(=O)C1(N(CCO)CCO)CCCC1`, for which the T/C under setting [10] was 104 % of control, the T/C under setting [11] was 98 % of control and the T/C under setting [12] is 105 % of control.

With `CCCCCc1c(C)[nH]n(C(N)=NCCSCc2nc[nH]c2C)c1=O`, the T/C reads like this: (dose: 60.0 mg/kg/injection, schedule: Q01DX005 (ip), vehicle: Klucel (hydroxypropylcellulose) (HPC)) 100 % of control; (dose: 120.0 mg/kg/injection, schedule: Q01DX005 (ip), vehicle: Klucel (hydroxypropylcellulose) (HPC)) 102 % of control; (dose: 240.0 mg/kg/injection, schedule: Q01DX005 (ip), vehicle: Klucel (hydroxypropylcellulose) (HPC)) 91 % of control.

As to `COc1ccc(-c2n[nH]c(-c3ccc(OC)cc3)c2N=Nc2ccc(S(=O)(=O)Nc3nnc(C)s3)cc2)cc1`, the T/C reads like this: (dose: 100.0 mg/kg/injection, schedule: Q04DX002 (ip), vehicle: saline with Tween-80) 103 % of control; (dose: 200.0 mg/kg/injection, schedule: Q04DX002 (ip), vehicle: saline with Tween-80) 103 % of control; (dose: 400.0 mg/kg/injection, schedule: Q04DX002 (ip), vehicle: saline with Tween-80) 94 % of control.

In the case of `CC(O)CC(c1ccccc1)C(C(=O)O)c1ccccc1` (stereo not drawn), the T/C runs as follows: under setting [7], 108 % of control; under setting [8], 101 % of control; under setting [13], 95 % of control.

On to `O=c1c2cnccc2cc2n1CCc1c-2[nH]c2ccccc12`, for which the T/C runs as follows: (dose: 3.12 mg/kg/injection, schedule: Q01DX009 (ip), vehicle: saline with Tween-80) 101 % of control; under setting [1], 101 % of control and 86 % of control; under setting [2], 101 % of control; under setting [3], 110 % of control.

Take `CCCCC(N)C(=O)NC(CCSC)C(N)=O` (stereo not drawn) (H-[Nle]-Met-NH2; configuration not given here): the T/C was 100 % of control under setting [10], 105 % of control under setting [11] and 100 % of control under setting [12].

As for `CC(=O)C(C)(C)Cc1cc(C(C)(C)CC=O)on1`, the T/C is 107 % of control under setting [5]; 100 % of control under setting [6]; 108 % of control (dose: 240.0 mg/kg/injection, schedule: Q01DX005 (ip), vehicle: saline with Tween-80).

For the molecule `O=C1CC2(C(=O)NN1)C1=C(c3ccccc3CC1)N1CCCC12` (stereo not drawn), the T/C by setting is: (dose: 11.25 mg/kg/injection, schedule: Q01DX009 (ip), vehicle: Klucel (hydroxypropylcellulose) (HPC)) 100 % of control; (dose: 22.5 mg/kg/injection, schedule: Q01DX009 (ip), vehicle: Klucel (hydroxypropylcellulose) (HPC)) 102 % of control; (dose: 45.0 mg/kg/injection, schedule: Q01DX009 (ip), vehicle: Klucel (hydroxypropylcellulose) (HPC)) 100 % of control; (dose: 90.0 mg/kg/injection, schedule: Q01DX009 (ip), vehicle: Klucel (hydroxypropylcellulose) (HPC)) 100 % of control.

For `CC1CN=C(c2ccc(NC(=O)NCCCCCCCCCNC(=O)Nc3ccc(C4=NCC(C)N4)cc3)cc2)N1` (stereo not drawn), the T/C runs as follows: (dose: 12.5 mg/kg/injection, schedule: Q01DX005 (ip), vehicle: saline + Tween-80 + alcohol) 106 % of control and 110 % of control; (dose: 25.0 mg/kg/injection, schedule: Q01DX005 (ip), vehicle: saline + Tween-80 + alcohol) 105 % of control and 118 % of control; under setting [14], 110 % of control and 121 % of control; under setting [15], 108 % of control.

Consider `CN(C)CCCNC(=O)/C=C\C(=O)O`, for which the T/C runs as follows: (dose: 12.5 mg/kg/injection, schedule: Q01DX009 (ip), vehicle: saline) 107 % of control; (dose: 25.0 mg/kg/injection, schedule: Q01DX009 (ip), vehicle: saline) 100 % of control; under setting [7], 109 % of control and 93 % of control; under setting [8], 94 % of control; under setting [13], 94 % of control; (dose: 400.0 mg/kg/injection, schedule: Q01DX009 (ip), vehicle: saline) 97 % of control.

Consider `Cc1cccc(NC(=O)CCC(=O)NS(C)(=O)=O)c1`, for which the T/C (dose: 100.0 mg/kg/injection, schedule: Q04DX002 (ip), vehicle: saline) is 103 % of control; the T/C (dose: 200.0 mg/kg/injection, schedule: Q04DX002 (ip), vehicle: saline) is 102 % of control; the T/C (dose: 400.0 mg/kg/injection, schedule: Q04DX002 (ip), vehicle: saline) is 100 % of control.

With `CCCCCCCCCCCCCCCC[As](CCCCCCCCCCCCCCCC)SCC1OC(OC(C)=O)C(OC(C)=O)C(OC(C)=O)C1OC(C)=O` (stereo not drawn), the T/C runs as follows: under setting [3], 114 % of control; under setting [16], 109 % of control and 119 % of control; under setting [4], 117 % of control; under setting [17], 119 % of control.

With `C/C=C(/C)C(=O)OC1c2c(C)coc2CC23OC2CCC(C)C13C` (stereo not drawn), the T/C was 98 % of control (dose: 12.5 mg/kg/injection, schedule: Q01DX009 (ip), vehicle: Klucel (hydroxypropylcellulose) (HPC)); 105 % of control (dose: 25.0 mg/kg/injection, schedule: Q01DX009 (ip), vehicle: Klucel (hydroxypropylcellulose) (HPC)); 99 % of control under setting [9].

As to `CC(=O)NN=C(c1ccccc1)c1ccccc1`, the T/C runs as follows: under setting [16], 100 % of control; under setting [4], 100 % of control; under setting [17], 100 % of control.

On to `COC1=CCC2=C(CC[C@H]3[C@H]2CCP3(C)=S)C1` (stereo partly drawn), for which the T/C is, setting by setting: under setting [14], 115 % of control; under setting [15], 106 % of control; (dose: 200.0 mg/kg/injection, schedule: Q01DX005 (ip), vehicle: saline + Tween-80 + alcohol) 101 % of control.
